Laboratory results published in patent US20250313849A1, “OPTOGENETIC INDUCTION OF MEMBRANELESS ORGANELLES” (UNIVERSITY OF PITTSBURGH-OF THE COMMONWEALTH SYSTEM OF …, priority 2017, published 2025).
Entries after “also recorded” stand apart in the source; their conditions may differ.

Assays:
Type in all cases: cell-based
stress granules = assay: Cellular occurrence and structural characteristics of stress granules; conditions: NaAsO2 0.5 mM, 30 min; cells expressing G3BP1-NcVVDY50W; Ataxin-2 positive
Experimental: FIGS. 11A-11D. […] Under normal conditions, G3BP1-NcVVDY50W remains diffuse in the cytoplasm. When endogenous stress granule formation is induced with NaAsO2 (0.5 mM, 30 min treatment), the G3BP1-NcVVDY50W forms stress granules that stain positive for the key marker Ataxin-2, and occur in the cell 11 times on average (FIG. 11A). They also have a defined shape that gives them a defined area (FIG. 11B), diameter (FIG. 11C) and circularity (FIG. 11D).

[1] = tested on: ReNCell differentiated cortical neuron-like cells; assay: Blue light induced stress granules in ReNCell differentiated cortical neuron-like cells
Text: FIG. 20. Blue light induced stress granules using a G3BP1-NcVVDY50W protein arrangement in ReNCell differentiated cortical neuron-like cells. A DNA arrangement that generates the G3BP1-NcVVDY50W was developed and expressed in ReNCell differentiated cortical neuron-like cells. To confirm differentiation of ReN cells to cortical neuron-like cells, cultures were probed for MAP2, a protein that is only expressed in neurons. Under normal conditions, the NcVVDY50W-G3BP1 remains diffuse in the cytoplasm.

phospho-eIF2a and ATF4 = assay: Western blotting for integrated stress response (ISR) components; conditions: total protein of cells with blue light induced stress granules
Text: FIGS. 21A-21B. […] Total cellular protein from blue light induced stress granules using G3BP1-NcVVDY50W protein arrangement was collected.

HEK293 cells = assay: Blue light induced stress granules: staining for stress granule markers and mRNA; conditions: blue light stimulation
Text: FIGS. 2A-2B. Blue light induced stress granules using a NcVVDY50W-G3BP1 protein arrangement. […] A DNA arrangement that generates the NcVVDY50W-G3BP1 was developed and expressed in HEK293 cells. Under normal conditions, the NcVVDY50W-G3BP1 remains diffuse in the cytoplasm. When endogenous stress granule formation is induced with heat shock, the NcVVDY50W-G3BP1 forms stress granules that stain positive for key markers including Ataxin-2 and TIAR.
FIG. 5. […] Under normal conditions, G3BP1-NcVVDY50W remains diffuse in the cytoplasm. When endogenous stress granule formation is induced with NaAsO2 (0.5 mM, 30 min treatment), the G3BP1-NcVVDY50W forms stress granules that stain positive for key markers TDP-43 and eIF4G. […] As an example of this technology, DNA arrangements were developed that generated G3BP1-NcVVDY50W, and expressed in HEK293 cells. Under normal conditions, the G3BP1-NcVVDY50W remains diffuse in the cytoplasm. When endogenous stress granule formation is induced with sodium arsenite, the G3BP1-NcVVDY50W forms stress granules that probe positive for key markers, including TDP-43 and eIF4G. […] Inserts are 3D images of stress granules indicated by arrows.
While stress granule dynamics are shown to be altered in these diseases, the true contributions of stress granules to disease pathobiology is unknown since the only current method to form these organelles is to introduce an extracellular stressor (e.g. heat stress at 43° C., exposure to sodium arsenite) which is toxic to cells and ultimately kills the cells being studied. The longest studies of stress granules to date are only on the order of a few hours and so, the importance of these organelles in the initiation of neurodegeneration or cancer cannot be assessed. Therefore, a method to control stress granule formation was developed using light, without the need for any extracellular stressors. To achieve this, the DNA encoding specific photoreceptor protein domains that self-bind with blue light exposure were linked to the DNA of a key protein required for the formation of stress granules, G3BP1 or TIA1. These arrangements were then expressed in HEK293 cells and were tested for their ability to form functional stress granules with various blue light treatment paradigms. It was shown that the LOV photoreceptor domain, from the Vivid protein of N. crassa, which is known to dimerize with blue light exposure, when fused to G3BP1 and exposed to 15-1080 min of 465 nm light at 0.1-1.0 mW/cm2 initiates the formation of a core stress granule structure consisting of the photoreceptors fused to G3BP1 that recruits additional G3BP1 and accessory proteins that comprise stress granules and allow for their maturation. This likely involved the liquid-liquid phase separation (LLPS) and dimerization and oligomerization of G3BP1 (concept represented in FIG. 1).

protein synthesis = assay: De novo protein synthesis, HPG incorporation with Click-iT detection
Experimental: FIGS. 14A-14B. […] The major function of endogenous stress granules is to bind mRNAs and halt protein synthesis until the cellular stress is removed. To test this, cells expressing G3BP1-NcVVDY50W were either exposed to blue light stimulation or not for 30 minutes and protein translation was assessed. Prior to the translation assay, cells were treated with cyclohexamide for one hour to inhibit protein synthesis and then the cyclohexamide was removed and cells were provided L-Homopropargylglycine (HPG) for one hour. HPG acts as a methionine amino acid analog and is incorporated into newly synthesized proteins. Click-iT™ chemistry was then performed to detect HPG and cells were imaged. Green signal indicates newly synthesized proteins during the time at which HPG is present in the media.
FIGS. 24A-24E. Replacing the G3BP1 NTF2 domain, which is required for G3BP1 self-oligomerization (optoSG), with oligomerizing photoreceptors, is sufficient to initiate the formation of optogenetic stress granules. FIG. 24A) Schematics of an additional approach to seed optoStress Granules (optoSGs) employing truncated G3BP1 protein and replacing the NTF2 oligomerizing domain with a photoreceptor with the capacity to oligomerize (in this instance Cry2-PHR, but also works with chronic stimulation of dimerizing photoreceptor). FIG. 24B) HEK cells expressing Cry2 PHR-[…]NTF-G3BP1 were exposed to blue light LED stimulation for 30 minutes to induce the formation of optoSGs.

[2] = tested on: optogenetically induced stress granule formation; assay: Blue light (optogenetically) induced stress granule formation, inhibitor pre-treatment; conditions: blue light stimulation; GSK2606414 added 1 hour before, cycloheximide 1 and a half hours before
Experimental: (§1) FIGS. 22A-22B. […] When endogenous stress granule formation is induced with NaAsO2 (0.5 mM, 30 min treatment), the G3BP1-NcVVDY50W forms stress granules that stain positive for key markers TIAR and eIF4G. When GSK2606414, a PERK kinase inhibitor, is added 1 hour before NaAsO2 treatment, endogenous stress granule formation is attenuated (FIG. 22A). When GSK2606414 is added 1 hour before blue light stimulation, there is no change in stress granule formation (FIG. 22B).
(§2) FIGS. 23A-23B. […] When endogenous stress granule formation is induced with NaAsO2 (0.5 mM, 30 min treatment), the G3BP1-NcVVDY50W forms stress granules that stain positive for the key marker eIF4G. When cycloheximide, a translational inhibitor, is added 1 and a half hours before NaAsO2 treatment, endogenous stress granule formation is attenuated (FIG. 23A).
These light induced stress granules colocalize with key stress granule components, including Ataxin-2, TIAR, G3BP, eIF4G, eIF3H, RPS3, RPS6, TDP-43, FUS mRNA, and PABPC1 (FIGS. 2-9, 12, 13, 18, 20, 22, 23, 24, 25). Furthermore, the colocalization with mRNA (FIGS. 12 and 13) indicates the light induced stress granules are likely inhibiting mRNA translation. Note that the light induced stress granules appear identical to naturally occurring stress granules induced by heat shock treatment for 30 minutes at 42° C. […]

[3] = tested on: endogenous stress granule formation; assay: NaAsO2 induced endogenous stress granule formation in cells expressing G3BP1-NcVVDY50W, inhibitor pre-treatment; conditions: NaAsO2 0.5 mM, 30 min; GSK2606414 added 1 hour before, cycloheximide 1 and a half hours before
Experimental: as §1, §2

## O=[As]O [NaAsO2, sodium arsenite]
Stress granules
  occurrence of stress granules in the cell, on average: 11

## G3BP1-NcVVDY50W: G3BP1 Full Length Protein with NcVivid Y50W, SEQ ID NO: 16
[1]
  colocalization of blue light induced stress granules with Ataxin-2: colocalize with the key stress granule marker Ataxin-2
phospho-eIF2a and ATF4
  induction of cell stress (phospho-eIF2a, ATF4): do not induce a cell stress
HEK293 cells
  colocalization of blue light induced stress granules with stress granule markers: colocalize with the key translation factor eIF4G, and the stress granule marker Ataxin-2; also recorded: colocalize with the key stress granule markers TIAR and G3BP; also recorded: probe positive for TDP-43 and eIF4G; also recorded: colocalize with the key stress granule markers RPS6 and eIF4G (FIG. 6A), as well as Ataxin-2 and RPS3; also recorded: colocalize with the key stress granule markers PABPC1 and G3BP (FIG. 7A), as well as eIF3H and eIF4G; also recorded: colocalize with the key stress granule markers FUS and G3BP; also recorded: colocalize with the key stress granule marker Ataxin-2, but not RPL36a
  mRNA sequestration by blue light induced stress granules: sequester cytoplasmic mRNA
Protein synthesis; blue light stimulation 30 minutes, HPG for one hour
  reduction in protein synthesis with light-induced stress granules: 40%
Protein synthesis; blue light stimulation, Click-iT detection
  protein synthesis (HPG signal) with light-induced stress granules: little to no HPG signal

## C[C@@H]1C[C@@H]([C@H](O)CC2CC(=O)NC(=O)C2)C(=O)[C@@H](C)C1 [cycloheximide]
[2]
  optogenetically induced stress granule formation: inhibited; also recorded: fail to form
[3]
  endogenous stress granule formation: attenuated

## Cn1cc(-c2ccc3c(c2)CCN3C(=O)Cc2cccc(C(F)(F)F)c2)c2c(N)ncnc21 [GSK2606414]
[2]
  optogenetically induced stress granule formation: no change
[3]
  endogenous stress granule formation: attenuated
